Results on 21 molecules are retold here after patent publication US8664220B2, “Polycyclic compounds as lysophosphatidic acid receptor antagonists” (Amira Pharmaceuticals, Inc., priority 2009, dated 2014).

Where only a bound is given, the exact number is not on record here.

In the test the target is T1, human LPA1 (Homo sapiens, UniProt Q92633).
T1 construct: the full-length cDNA for human LPA1 was obtained by PCR of the reverse transcription reaction; expressed in transfected cells
T1 sequence (Q92633 whole entry): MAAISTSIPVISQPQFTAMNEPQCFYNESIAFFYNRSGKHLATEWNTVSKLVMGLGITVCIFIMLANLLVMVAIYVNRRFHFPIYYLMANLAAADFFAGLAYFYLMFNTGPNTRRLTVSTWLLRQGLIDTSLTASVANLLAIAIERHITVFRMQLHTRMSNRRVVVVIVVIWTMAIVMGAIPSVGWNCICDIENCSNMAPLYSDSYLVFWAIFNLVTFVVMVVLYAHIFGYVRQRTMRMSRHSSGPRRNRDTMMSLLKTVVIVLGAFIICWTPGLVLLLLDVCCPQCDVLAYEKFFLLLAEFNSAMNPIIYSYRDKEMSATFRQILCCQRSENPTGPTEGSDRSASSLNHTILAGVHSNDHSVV
Nature of the test: LPA1 calcium flux assay. It counts as cell-based. Conditions: human LPA1 expressing CHO cells, stimulated with 10 nM LPA; read-out: HLPA1 Ca Flux IC50. As to the method:
Establishment of a CHO Cell Line Stably Expressing Human LPA1
A 1.1 kb cDNA encoding the human LPA1 receptor was cloned from human lung.
Human lung RNA (Clontech Laboratories, Inc. USA) was reverse transcribed using the RETROscript kit (Ambion, Inc.) and the full-length cDNA for human LPA1 was obtained by PCR of the reverse transcription reaction. The nucleotide sequence of the cloned human LPA1 was determined by sequencing and confirmed to be identical to the published human LPA1 sequence (An et al. Biochem. Biophys. Res. Commun. 231:619 (1997). The cDNA was cloned into the pcDNA5/FRT expression plasmid and transfected in CHO cells using lipofectamine 2000 (Invitrogen Corp., USA). Clones stably expressing human LPA1 were selected using hygromycin and identified as cells that show Ca-influx in response to LPA.
LPA1 and LPA3 Calcium Flux Assays
Human LPA1 or LPA3 expressing CHO cells are seeded at 20,000-45,000 cells per well in a 96-well poly-D-lysine coated plate one or two days before the assay. Prior to the assay, the cells are washed once with PBS and then cultured in serum-free media overnight. On the day of the assay, a calcium indicator dye (Calcium 4, Molecular Devices) in assay buffer (HBSS with Ca^2+ and Mg^2+ and containing 20 mM Hepes and 0.3% fatty-acid free human serum albumin) is added to each well and incubation continued for 1 hour at 37° C. 10 μl of test compounds in 2.5% DMSO are added to the cells and incubation continued at room temperature for 30 minutes. Cells are the stimulated by the addition of 10 nM LPA and intracellular Ca^2+ measured using the Flexstation 3 (Molecular Devices). IC50s are determined using Graphpad prism analysis of drug titration curves.
Turning to `Cc1noc(-c2ccc(-c3ccc(C4(C(=O)O)CC4)cc3)cc2)c1CN1C(=O)O[C@H](c2ccccc2)[C@@H]1C` [Compound 1-16, 1-{4′-[3-Methyl-4-((4S,5R)-4-methyl-2-oxo-5-phenyl-oxazolidin-3-ylmethyl)-isoxazol-5-yl]-biphenyl-4-yl}-cyclopropanecarboxylic acid], the IC50 is less than 300 nM.

Turning to `Cc1noc(-c2ccc(-c3ccc(C4(C(=O)O)CC4)cc3)cc2)c1CN1CCC(c2ccccc2)C1` (stereo not drawn) [Compound 1-17, 1-{4′-[3-Methyl-4-(3-phenyl-pyrrolidin-1-ylmethyl)-isoxazol-5-yl]-biphenyl-4-yl}-cyclopropanecarboxylic acid], the IC50 was less than 300 nM.

In the case of `Cc1noc(-c2ccc(-c3ccc(C4(C(=O)O)CC4)cc3)cc2)c1CN1CCCC(c2ccccc2)C1` (stereo not drawn) [Compound 1-18, 1-{4′-[3-Methyl-4-(3-phenyl-piperidin-1-ylmethyl)-isoxazol-5-yl]-biphenyl-4-yl}-cyclopropanecarboxylic acid], the IC50 was less than 300 nM.

Take `Cc1noc(-c2ccc(-c3ccc(C4(C(=O)O)CC4)cc3)cc2)c1CNc1nnc(-c2ccccc2)o1` [Compound 1-19, 1-(4′-{3-Methyl-4-[(5-phenyl-[1,3,4]oxadiazol-2-ylamino)-methyl]-isoxazol-5-yl}-biphenyl-4-yl)-cyclopropanecarboxylic acid]: the IC50 is less than 300 nM.

Regarding `Cc1noc(-c2ccc(-c3ccc(C4(C(=O)O)CC4)cc3)cc2)c1Cn1nncc1-c1ccccc1` [Compound 1-20, 1-{4′-[3-Methyl-4-(5-phenyl-[1,2,3]triazol-1-ylmethyl)-isoxazol-5-yl]-biphenyl-4-yl}-cyclopropanecarboxylic acid], the IC50 fell in the range of 300 to 1000 nM.

Turning to `Cc1noc(-c2ccc(-c3ccc(C4(C(=O)O)CC4)cc3)cc2)c1Cn1nnc(-c2ccccc2)n1` [Compound 1-21, 1-{4′-[3-Methyl-4-(5-phenyl-tetrazol-2-ylmethyl)-isoxazol-5-yl]-biphenyl-4-yl}-cyclopropanecarboxylic acid], the IC50 is less than 300 nM.

Consider `Cc1noc(-c2ccc(-c3ccc(C4(C(=O)O)CC4)cc3)cc2)c1CN1CC(c2ccccc2)OC1=O` (stereo not drawn) [Compound 1-22, 1-{4′-[3-Methyl-4-(2-oxo-5-phenyl-oxazolidin-3-ylmethyl)-isoxazol-5-yl]-biphenyl-4-yl}-cyclopropanecarboxylic acid], for which the IC50 was less than 300 nM.

On to `Cc1noc(-c2ccc(-c3ccc(C4(C(=O)O)CC4)cc3)cc2)c1Cn1cc(-c2ccccc2)cn1` [Compound 1-23, 1-{4′-[3-Methyl-4-(4-phenyl-pyrazol-1-ylmethyl)-isoxazol-5-yl]-biphenyl-4-yl}-cyclopropanecarboxylic acid], for which the IC50 was less than 300 nM.

On to `Cc1noc(-c2ccc(-c3ccc(C4(C(=O)O)CC4)cc3)cc2)c1-c1nnc(Cc2ccccc2)o1` [Compound 1-24, 1-{4′-[4-(5-Benzyl-[1,3,4]oxadiazol-2-yl)-3-methyl-isoxazol-5-yl]-biphenyl-4-yl}-cyclopropanecarboxylic acid], for which the IC50 lay in the range of 1000 to 50000 nM.

Take `Cc1noc(-c2ccc(-c3ccc(C4(C(=O)O)CC4)cc3)cc2)c1C1CN(Cc2ccccc2)C(=O)O1` (stereo not drawn) [Compound 1-28, 1-{4′-[4-(3-Benzyl-2-oxo-oxazolidin-5-yl)-3-methyl-isoxazol-5-yl]-biphenyl-4-yl}-cyclopropanecarboxylic acid]: the 50% inhibitory concentration (IC50) was less than 300 nM.

Consider `Cc1noc(-c2ccc(-c3ccc(C4(C(=O)O)CC4)cc3)cc2)c1Cc1nnc(Cc2ccccc2)o1` [Compound 1-29, 1-{4′-[4-(5-Benzyl-[1,3,4]oxadiazol-2-ylmethyl)-3-methyl-isoxazol-5-yl]-biphenyl-4-yl}-cyclopropanecarboxylic acid], for which the IC50 was less than 300 nM.

For the molecule `Cc1noc(-c2ccc(-c3ccc(C4(C(=O)O)CC4)cc3)cc2)c1C(O)c1nnc(Cc2ccccc2)o1` (stereo not drawn) [Compound 1-30, 1-(4′-{4-[(5-Benzyl-[1,3,4]oxadiazol-2-yl)-hydroxy-methyl]-3-methyl-isoxazol-5-yl}-biphenyl-4-yl)-cyclopropanecarboxylic acid], the IC50 was less than 300 nM.

As to `Cc1noc(-c2ccc(-c3ccc(C4(C(=O)O)CC4)cc3)cc2)c1Cc1cn(Cc2ccccc2)nn1` [Compound 1-31, 1-{4′-[4-(1-Benzyl-1H-[1,2,3]triazol-4-ylmethyl)-3-methyl-isoxazol-5-yl]-biphenyl-4-yl}-cyclopropanecarboxylic acid], the IC50 was less than 300 nM.

For `Cc1noc(-c2ccc(-c3ccc(C4(CC(=O)O)CC4)cc3)cc2)c1C(O)CCCc1ccc(Cc2ccccc2)cc1` (stereo not drawn) [Compound 1-32, [1-(4′-{4-[4-(4-Benzyl-phenyl)-1-hydroxy-butyl]-3-methyl-isoxazol-5-yl}-biphenyl-4-yl)-cyclopropyl]-acetic acid], the IC50 fell in the range of 1000 to 50000 nM.

For `Cc1noc(-c2ccc(-c3ccc(C4(CC(=O)O)CC4)cc3)cc2)c1C(O)CCCc1ccc(Oc2ccccc2)cc1` (stereo not drawn) [Compound 1-33, [1-(4′-{-4-[1-Hydroxy-4-(4-phenoxy-phenyl)-butyl]-3-methyl-isoxazol-5-yl}-biphenyl-4-yl)-cyclopropyl]-acetic acid], the IC50 fell in the range of 1000 to 50000 nM.

For `Cc1noc(-c2ccc(-c3ccc(C4(C(=O)O)CC4)cc3)cc2)c1NC1CCN(Cc2ccccc2)CC1` [Compound 1-36, 1-{4′-[4-(1-Benzyl-piperidin-4-ylamino)-3-methyl-isoxazol-5-yl]-biphenyl-4-yl}-cyclopropanecarboxylic acid], the IC50 lay within 1000 to 50000 nM.

Regarding `Cc1noc(-c2ccc(-c3ccc(C4(CC(=O)O)CC4)cc3)cc2)c1NC1CCN(Cc2ccccc2)CC1` [Compound 1-37, (1-{4′-[4-(1-Benzyl-piperidin-4-ylamino)-3-methyl-isoxazol-5-yl]-biphenyl-4-yl}-cyclopropyl)-acetic acid], the IC50 was 1000 to 50000 nM.

For the molecule `Cc1noc(-c2ccc(-c3ccc(C4(C(=O)O)CC4)cc3)cc2)c1C(O)c1nnc(-c2ccccc2)o1` (stereo not drawn) [Compound 1-38, 1-(4′-{4-[Hydroxy-(5-phenyl-[1,3,4]oxadiazol-2-yl)-methyl]-3-methyl-isoxazol-5-yl}-biphenyl-4-yl)-cyclopropanecarboxylic acid], the half-inhibitory concentration (IC50) is less than 300 nM.

For the molecule `Cc1noc(-c2ccc(-c3ccc(C4(CC(=O)O)CC4)cc3)cc2)c1C(O)c1nnc(-c2ccccc2)o1` (stereo not drawn) [Compound 1-39, [1-(4′-{4-[Hydroxy-(5-phenyl-[1,3,4]oxadiazol-2-yl)-methyl]-3-methyl-isoxazol-5-yl}-biphenyl-4-yl)-cyclopropyl]-acetic acid], the IC50 was less than 300 nM.

Regarding `Cc1noc(-c2ccc(-c3ccc(C4(CC(=O)O)CC4)cc3)cc2)c1NC(C)c1cc(-c2ccccc2)no1` (stereo not drawn) [Compound 1-42, [1-(4′-{3-Methyl-4-[1-(3-phenyl-isoxazol-5-yl)-ethylamino]-isoxazol-5-yl}-biphenyl-4-yl)-cyclopropyl]-acetic acid], the IC50 was less than 300 nM.

Turning to `Cc1noc(-c2ccc(-c3ccc(C4(CC(=O)O)CC4)cc3)cc2)c1NC(C)Cc1ccc(OCc2ccc(C(F)(F)F)cc2)cc1` (stereo not drawn) [Compound 1-45, {1-[4′-(3-Methyl-4-{1-methyl-2-[4-(4-trifluoromethyl-benzyloxy)-phenyl]-ethylamino}-isoxazol-5-yl)-biphenyl-4-yl]-cyclopropyl}-acetic acid], the IC50 was in the range of 300 to 1000 nM.
